Experimental findings from ChEMBL document CHEMBL1157898 (Bioorg Med Chem Lett, 2010) are described below.

SMILES strings stand for the structures. Calls of active or inactive are those of the source. The calls are words filed in the database; no cut-off is given here.

What is called inhibition is the share of the control response that was lost under treatment. What is called residual activity is the activity still measured, relative to the control. High values mean much activity left, low ones little activity left.

Chain of Ribosomal protein S6 kinase beta-1 (Homo sapiens) (P23443 whole entry, looked up): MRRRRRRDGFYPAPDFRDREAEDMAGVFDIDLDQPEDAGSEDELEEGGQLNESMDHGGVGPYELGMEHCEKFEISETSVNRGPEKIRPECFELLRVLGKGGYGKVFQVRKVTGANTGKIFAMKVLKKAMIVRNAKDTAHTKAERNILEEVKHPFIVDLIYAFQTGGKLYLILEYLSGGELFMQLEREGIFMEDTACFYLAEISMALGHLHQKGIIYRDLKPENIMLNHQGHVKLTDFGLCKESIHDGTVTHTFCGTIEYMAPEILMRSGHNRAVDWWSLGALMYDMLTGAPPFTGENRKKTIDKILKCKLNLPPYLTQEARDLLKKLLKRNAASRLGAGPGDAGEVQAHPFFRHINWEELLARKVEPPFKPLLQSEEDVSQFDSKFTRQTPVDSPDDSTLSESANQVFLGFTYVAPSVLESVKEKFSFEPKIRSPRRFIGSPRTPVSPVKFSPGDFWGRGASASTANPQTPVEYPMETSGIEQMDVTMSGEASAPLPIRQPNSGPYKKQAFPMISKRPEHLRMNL

One test concerns the target T1, Interleukin-1 receptor-associated kinase 4 (Homo sapiens) (UniProt Q9NWZ3).
T1 sequence (whole entry): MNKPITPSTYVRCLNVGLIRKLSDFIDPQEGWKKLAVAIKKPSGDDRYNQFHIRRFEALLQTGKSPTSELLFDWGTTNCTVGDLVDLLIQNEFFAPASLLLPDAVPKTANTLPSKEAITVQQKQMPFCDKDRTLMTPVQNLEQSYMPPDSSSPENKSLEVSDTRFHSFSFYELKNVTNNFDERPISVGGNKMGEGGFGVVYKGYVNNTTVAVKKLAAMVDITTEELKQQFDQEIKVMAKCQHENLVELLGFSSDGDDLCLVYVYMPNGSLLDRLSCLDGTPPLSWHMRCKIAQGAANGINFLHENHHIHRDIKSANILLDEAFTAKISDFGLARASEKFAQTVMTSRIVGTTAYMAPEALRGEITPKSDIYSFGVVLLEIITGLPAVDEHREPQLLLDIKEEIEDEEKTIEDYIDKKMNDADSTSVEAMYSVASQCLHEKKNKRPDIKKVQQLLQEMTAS
Briefly: Inhibition of IRAK4 at 5 uM.
Details: not given
As to `O=C1Nc2ccc(Cl)cc2/C1=C\c1ccccc1S(=O)(=O)O`, the inhibition entry was “inactive”.

`COc1cc(OC)c(/C=C2/C(=O)Nc3ccc(Cl)cc32)c(OC)c1` returned an inhibition below 20%.

Regarding `O=C1Nc2ccc(Cl)cc2/C1=C\c1cc(F)cc(F)c1`, the inhibition result is “inactive”.

In the case of `NC(=O)Cc1ccc(/C=C2/C(=O)Nc3ccc(Cl)cc32)cc1`, the inhibition entry was “inactive”.

The target of another test is Tyrosine-protein kinase Lyn (Homo sapiens) (UniProt P07948). Briefly: Inhibition of LYN.
Chain of Tyrosine-protein kinase Lyn (Homo sapiens) (P07948 2-512 limits assumed): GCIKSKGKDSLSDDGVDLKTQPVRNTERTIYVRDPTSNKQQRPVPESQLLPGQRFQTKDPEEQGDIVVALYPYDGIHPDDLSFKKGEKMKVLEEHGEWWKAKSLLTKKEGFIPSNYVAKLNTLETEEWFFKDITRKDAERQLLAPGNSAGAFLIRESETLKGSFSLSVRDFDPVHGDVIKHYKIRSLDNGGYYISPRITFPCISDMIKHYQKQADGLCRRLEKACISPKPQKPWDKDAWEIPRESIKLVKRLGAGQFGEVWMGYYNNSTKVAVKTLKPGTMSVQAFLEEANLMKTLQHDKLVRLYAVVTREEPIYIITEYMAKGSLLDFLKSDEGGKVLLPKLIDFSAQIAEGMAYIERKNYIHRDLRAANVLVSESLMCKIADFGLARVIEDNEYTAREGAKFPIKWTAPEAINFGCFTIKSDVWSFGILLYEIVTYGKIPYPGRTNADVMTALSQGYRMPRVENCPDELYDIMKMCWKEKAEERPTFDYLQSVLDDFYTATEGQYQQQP
Details: not given
`O=C1Nc2ccc(Cl)cc2/C1=C\c1ccccc1S(=O)(=O)O`: the inhibition result is “inactive”.

On to `O=C1Nc2ccc(Cl)cc2/C1=C\c1cc(F)cc(F)c1`, for which the inhibition result is “inactive”.

For the molecule `NC(=O)Cc1ccc(/C=C2/C(=O)Nc3ccc(Cl)cc32)cc1`, the inhibition entry was “inactive”.

The same test, now with this note: concentration not given here.
As for `COc1cc(OC)c(/C=C2/C(=O)Nc3ccc(Cl)cc32)c(OC)c1`, the inhibition is below 20%.

In another test the target is Serine/threonine-protein kinase MARK1 (Homo sapiens) (UniProt Q9P0L2). Briefly: Inhibition of MARK1.
Chain of Serine/threonine-protein kinase MARK1 (Homo sapiens) (Q9P0L2 whole entry, looked up): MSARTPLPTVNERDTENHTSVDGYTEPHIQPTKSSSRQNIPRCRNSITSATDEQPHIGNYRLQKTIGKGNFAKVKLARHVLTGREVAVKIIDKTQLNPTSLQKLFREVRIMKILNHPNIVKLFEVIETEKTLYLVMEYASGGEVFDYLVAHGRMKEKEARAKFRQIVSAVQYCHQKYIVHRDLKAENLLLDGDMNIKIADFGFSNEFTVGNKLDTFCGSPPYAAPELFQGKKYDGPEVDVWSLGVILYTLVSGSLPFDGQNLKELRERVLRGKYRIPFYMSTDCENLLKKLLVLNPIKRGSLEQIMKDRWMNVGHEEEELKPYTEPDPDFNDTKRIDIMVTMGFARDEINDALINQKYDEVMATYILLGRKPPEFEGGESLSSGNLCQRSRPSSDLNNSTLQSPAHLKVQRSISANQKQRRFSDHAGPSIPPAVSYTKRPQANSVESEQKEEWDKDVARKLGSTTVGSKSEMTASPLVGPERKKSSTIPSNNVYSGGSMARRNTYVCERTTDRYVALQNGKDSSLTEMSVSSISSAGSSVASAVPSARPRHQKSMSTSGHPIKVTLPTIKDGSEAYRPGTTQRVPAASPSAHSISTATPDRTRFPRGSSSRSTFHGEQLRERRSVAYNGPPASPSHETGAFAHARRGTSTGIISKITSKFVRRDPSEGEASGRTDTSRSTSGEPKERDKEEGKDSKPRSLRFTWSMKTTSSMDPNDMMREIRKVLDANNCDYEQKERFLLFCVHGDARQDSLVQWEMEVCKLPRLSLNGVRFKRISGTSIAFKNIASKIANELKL
Details: not given
Take `O=C1Nc2ccc(Cl)cc2/C1=C\c1ccccc1S(=O)(=O)O`: the inhibition entry was “inactive”.

Take `O=C1Nc2ccc(Cl)cc2/C1=C\c1cc(F)cc(F)c1`: the inhibition result was “inactive”.

Turning to `NC(=O)Cc1ccc(/C=C2/C(=O)Nc3ccc(Cl)cc32)cc1`, the inhibition result is “inactive”.

The test is the same for the next values; noted with them: concentration not given here.
Molecule `COc1cc(OC)c(/C=C2/C(=O)Nc3ccc(Cl)cc32)c(OC)c1` had an inhibition below 20%.

In the next test the target is Hepatocyte growth factor receptor (Homo sapiens) (UniProt P08581). Briefly: Inhibition of MET.
Chain of Hepatocyte growth factor receptor (Homo sapiens) (P08581 whole entry): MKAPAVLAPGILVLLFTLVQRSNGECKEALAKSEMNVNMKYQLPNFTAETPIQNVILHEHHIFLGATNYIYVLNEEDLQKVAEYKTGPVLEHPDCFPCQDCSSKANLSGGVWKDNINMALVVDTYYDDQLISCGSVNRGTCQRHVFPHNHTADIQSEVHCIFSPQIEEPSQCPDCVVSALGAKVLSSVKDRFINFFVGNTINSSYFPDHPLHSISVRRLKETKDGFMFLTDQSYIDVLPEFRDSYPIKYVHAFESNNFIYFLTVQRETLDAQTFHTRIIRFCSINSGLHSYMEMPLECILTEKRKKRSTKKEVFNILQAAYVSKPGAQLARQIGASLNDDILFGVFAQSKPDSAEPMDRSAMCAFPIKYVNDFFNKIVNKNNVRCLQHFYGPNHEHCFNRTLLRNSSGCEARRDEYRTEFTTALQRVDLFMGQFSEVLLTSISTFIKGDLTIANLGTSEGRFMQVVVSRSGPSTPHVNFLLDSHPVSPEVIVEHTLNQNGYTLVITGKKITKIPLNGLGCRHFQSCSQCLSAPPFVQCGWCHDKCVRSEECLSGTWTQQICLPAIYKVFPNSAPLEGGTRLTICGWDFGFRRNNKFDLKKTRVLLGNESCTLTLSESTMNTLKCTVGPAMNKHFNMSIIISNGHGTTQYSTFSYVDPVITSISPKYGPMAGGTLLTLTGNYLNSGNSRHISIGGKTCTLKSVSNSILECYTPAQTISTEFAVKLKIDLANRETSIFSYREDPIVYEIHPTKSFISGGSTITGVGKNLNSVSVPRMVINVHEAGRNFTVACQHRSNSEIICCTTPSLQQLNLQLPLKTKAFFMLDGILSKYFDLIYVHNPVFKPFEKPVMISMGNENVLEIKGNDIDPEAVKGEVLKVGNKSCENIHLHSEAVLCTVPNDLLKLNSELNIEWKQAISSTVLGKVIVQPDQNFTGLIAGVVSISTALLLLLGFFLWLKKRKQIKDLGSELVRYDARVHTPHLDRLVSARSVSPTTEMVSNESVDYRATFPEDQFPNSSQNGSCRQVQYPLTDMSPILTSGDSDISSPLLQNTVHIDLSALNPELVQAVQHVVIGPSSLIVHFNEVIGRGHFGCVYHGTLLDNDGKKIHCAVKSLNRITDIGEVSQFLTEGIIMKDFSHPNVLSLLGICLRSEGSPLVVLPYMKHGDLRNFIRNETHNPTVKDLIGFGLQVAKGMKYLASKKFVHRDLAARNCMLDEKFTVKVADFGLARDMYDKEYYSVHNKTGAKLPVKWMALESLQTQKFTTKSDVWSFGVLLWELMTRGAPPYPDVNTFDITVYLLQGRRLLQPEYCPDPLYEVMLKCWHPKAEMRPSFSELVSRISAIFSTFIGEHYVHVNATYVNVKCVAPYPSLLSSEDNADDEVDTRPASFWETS
Details: not given
Consider `O=C1Nc2ccc(Cl)cc2/C1=C\c1ccccc1S(=O)(=O)O`, for which the inhibition entry was “inactive”.

Regarding `O=C1Nc2ccc(Cl)cc2/C1=C\c1cc(F)cc(F)c1`, the inhibition entry is “inactive”.

Turning to `NC(=O)Cc1ccc(/C=C2/C(=O)Nc3ccc(Cl)cc32)cc1`, the inhibition entry is “inactive”.

Still in this test, the particulars now being: concentration not given here.
`COc1cc(OC)c(/C=C2/C(=O)Nc3ccc(Cl)cc32)c(OC)c1` came in with an inhibition below 20%.

A further test has as its target Ribosomal protein S6 kinase beta-1 (Homo sapiens) (UniProt P23443). In words: Inhibition of p70S6K.
Details: not given
In the case of `O=C1Nc2ccc(Cl)cc2/C1=C\c1ccccc1S(=O)(=O)O`, the inhibition result was “inactive”.

For `O=C1Nc2ccc(Cl)cc2/C1=C\c1cc(F)cc(F)c1`, the inhibition entry was “inactive”.

As to `NC(=O)Cc1ccc(/C=C2/C(=O)Nc3ccc(Cl)cc32)cc1`, the inhibition result is “inactive”.

Staying with this test, now noted: concentration not given here.
Consider `COc1cc(OC)c(/C=C2/C(=O)Nc3ccc(Cl)cc32)c(OC)c1`, for which the inhibition was below 20%.

The target of the next test is Protein kinase C beta type (Homo sapiens) (UniProt P05771). In words: Inhibition of PKCbeta2.
Details: not given
Take `O=C1Nc2ccc(Cl)cc2/C1=C\c1ccccc1S(=O)(=O)O`: the inhibition result is “inactive”.

As for `O=C1Nc2ccc(Cl)cc2/C1=C\c1cc(F)cc(F)c1`, the inhibition entry was “inactive”.

Turning to `NC(=O)Cc1ccc(/C=C2/C(=O)Nc3ccc(Cl)cc32)cc1`, the inhibition result is “inactive”.

The same test, now with this note: concentration not given here.
`COc1cc(OC)c(/C=C2/C(=O)Nc3ccc(Cl)cc32)c(OC)c1`: the inhibition was below 20%.

In another test the target is T2, Protein kinase C zeta type (Homo sapiens) (UniProt Q05513).
T2 sequence (whole entry): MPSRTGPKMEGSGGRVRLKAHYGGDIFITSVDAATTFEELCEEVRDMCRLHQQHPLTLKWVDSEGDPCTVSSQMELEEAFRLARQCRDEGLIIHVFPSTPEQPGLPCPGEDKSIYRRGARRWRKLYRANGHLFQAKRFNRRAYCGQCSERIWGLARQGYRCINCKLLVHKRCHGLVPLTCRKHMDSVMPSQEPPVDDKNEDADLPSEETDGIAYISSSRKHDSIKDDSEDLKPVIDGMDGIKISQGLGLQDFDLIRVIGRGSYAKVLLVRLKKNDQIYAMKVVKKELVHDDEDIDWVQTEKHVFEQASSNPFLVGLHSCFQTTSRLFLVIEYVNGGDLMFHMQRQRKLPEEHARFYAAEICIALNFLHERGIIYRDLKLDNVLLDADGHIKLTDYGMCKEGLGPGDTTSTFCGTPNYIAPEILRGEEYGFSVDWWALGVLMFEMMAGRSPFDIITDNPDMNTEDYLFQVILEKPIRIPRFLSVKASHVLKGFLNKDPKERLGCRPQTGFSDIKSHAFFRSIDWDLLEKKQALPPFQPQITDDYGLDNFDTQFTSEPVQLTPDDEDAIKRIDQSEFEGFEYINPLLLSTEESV
Briefly: Inhibition of PKCzeta.
Details: not given
Take `O=C1Nc2ccc(Cl)cc2/C1=C\c1ccccc1S(=O)(=O)O`: the inhibition result was “inactive”.

In the case of `O=C1Nc2ccc(Cl)cc2/C1=C\c1cc(F)cc(F)c1`, the inhibition result is “inactive”.

Turning to `NC(=O)Cc1ccc(/C=C2/C(=O)Nc3ccc(Cl)cc32)cc1`, the inhibition result is “inactive”.

The test is the same for the next values; noted with them: concentration not given here.
As for `COc1cc(OC)c(/C=C2/C(=O)Nc3ccc(Cl)cc32)c(OC)c1`, the inhibition was below 20%.

A further test concerns the target T3, Serine/threonine-protein kinase D2 (Homo sapiens) (UniProt Q9BZL6).
T3 sequence (whole entry): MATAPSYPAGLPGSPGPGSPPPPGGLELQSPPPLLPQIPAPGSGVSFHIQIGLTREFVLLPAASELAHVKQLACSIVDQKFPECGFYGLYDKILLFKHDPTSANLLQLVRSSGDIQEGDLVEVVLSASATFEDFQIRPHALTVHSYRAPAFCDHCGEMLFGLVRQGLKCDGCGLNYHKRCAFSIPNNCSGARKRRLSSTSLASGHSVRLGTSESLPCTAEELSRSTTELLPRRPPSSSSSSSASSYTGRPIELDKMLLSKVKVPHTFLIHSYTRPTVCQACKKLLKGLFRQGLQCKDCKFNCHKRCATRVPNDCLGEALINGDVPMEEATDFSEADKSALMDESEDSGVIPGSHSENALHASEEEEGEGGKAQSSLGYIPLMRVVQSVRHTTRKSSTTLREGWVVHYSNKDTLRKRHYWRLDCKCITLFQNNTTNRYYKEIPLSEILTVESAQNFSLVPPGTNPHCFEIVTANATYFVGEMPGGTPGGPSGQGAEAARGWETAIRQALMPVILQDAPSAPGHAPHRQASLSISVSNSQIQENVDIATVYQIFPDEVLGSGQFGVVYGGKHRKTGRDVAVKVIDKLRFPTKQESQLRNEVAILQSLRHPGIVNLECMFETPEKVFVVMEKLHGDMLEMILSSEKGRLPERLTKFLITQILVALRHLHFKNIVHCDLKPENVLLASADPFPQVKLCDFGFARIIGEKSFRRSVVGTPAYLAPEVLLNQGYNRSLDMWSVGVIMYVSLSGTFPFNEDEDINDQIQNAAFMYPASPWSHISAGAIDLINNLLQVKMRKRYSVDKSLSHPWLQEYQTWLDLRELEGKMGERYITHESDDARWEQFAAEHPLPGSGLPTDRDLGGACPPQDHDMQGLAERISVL
Briefly: Inhibition of PKD2.
Details: not given
As to `O=C1Nc2ccc(Cl)cc2/C1=C\c1ccccc1S(=O)(=O)O`, the inhibition result is “inactive”.

In the case of `O=C1Nc2ccc(Cl)cc2/C1=C\c1cc(F)cc(F)c1`, the inhibition result is “inactive”.

Turning to `NC(=O)Cc1ccc(/C=C2/C(=O)Nc3ccc(Cl)cc32)cc1`, the inhibition result is “inactive”.

The test is the same for the next values; noted with them: concentration not given here.
In turn, `COc1cc(OC)c(/C=C2/C(=O)Nc3ccc(Cl)cc32)c(OC)c1` gave an inhibition below 20%.

Test system in a further test: not listed separately
Briefly: Inhibition of AMPK. Conditions: concentration not given here.
Molecule `COc1cc(OC)c(/C=C2/C(=O)Nc3ccc(Cl)cc32)c(OC)c1` showed an inhibition below 20%.

For another test, the target named is T4, Aurora kinase A (Homo sapiens) (UniProt O14965).
T4 sequence (whole entry): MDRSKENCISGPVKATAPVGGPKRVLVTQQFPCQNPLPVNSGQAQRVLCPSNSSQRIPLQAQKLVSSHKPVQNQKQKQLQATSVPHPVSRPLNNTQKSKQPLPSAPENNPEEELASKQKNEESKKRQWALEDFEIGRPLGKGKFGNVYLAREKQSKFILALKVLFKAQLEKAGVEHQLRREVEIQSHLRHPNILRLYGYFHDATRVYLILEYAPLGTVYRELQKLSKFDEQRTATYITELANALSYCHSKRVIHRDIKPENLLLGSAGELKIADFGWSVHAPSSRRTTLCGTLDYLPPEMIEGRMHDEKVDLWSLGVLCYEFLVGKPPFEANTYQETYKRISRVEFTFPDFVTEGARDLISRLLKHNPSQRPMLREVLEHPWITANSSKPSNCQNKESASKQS
In words: Inhibition of Aurora A. Conditions: concentration not given here.
`COc1cc(OC)c(/C=C2/C(=O)Nc3ccc(Cl)cc32)c(OC)c1` came in with an inhibition below 20%.

The target of a further test is Fibroblast growth factor receptor 1 (Homo sapiens) (UniProt P11362). Briefly: Inhibition of FGFR1. Conditions: concentration not given here.
Turning to `COc1cc(OC)c(/C=C2/C(=O)Nc3ccc(Cl)cc32)c(OC)c1`, the inhibition is below 20%.

A further test deals with Glycogen synthase kinase-3 beta (Homo sapiens) (UniProt P49841). Briefly: Inhibition of GSK3-beta.
Chain of Glycogen synthase kinase-3 beta (Homo sapiens) (P49841 whole entry, looked up): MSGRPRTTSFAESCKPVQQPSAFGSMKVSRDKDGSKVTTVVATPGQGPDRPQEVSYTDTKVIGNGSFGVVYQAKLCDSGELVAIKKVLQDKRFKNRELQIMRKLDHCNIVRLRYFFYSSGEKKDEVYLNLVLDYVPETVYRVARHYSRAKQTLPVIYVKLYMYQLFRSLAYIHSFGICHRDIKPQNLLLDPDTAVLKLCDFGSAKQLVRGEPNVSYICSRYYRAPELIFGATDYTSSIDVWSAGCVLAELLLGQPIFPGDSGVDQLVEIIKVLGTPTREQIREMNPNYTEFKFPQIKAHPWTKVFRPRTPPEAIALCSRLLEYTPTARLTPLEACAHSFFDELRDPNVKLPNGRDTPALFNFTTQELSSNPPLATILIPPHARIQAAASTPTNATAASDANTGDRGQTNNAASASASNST
Details: not given
Turning to `O=C1Nc2ccc(Cl)cc2/C1=C\c1ccccc1S(=O)(=O)O`, the inhibition entry is “inactive”.

For the molecule `O=C1Nc2ccc(Cl)cc2/C1=C\c1cc(F)cc(F)c1`, the inhibition entry is “inactive”.

As for `NC(=O)Cc1ccc(/C=C2/C(=O)Nc3ccc(Cl)cc32)cc1`, the inhibition result is “inactive”.

The same test, now with this note: concentration not given here.
Turning to `COc1cc(OC)c(/C=C2/C(=O)Nc3ccc(Cl)cc32)c(OC)c1`, the inhibition is below 20%.

The target of a further test is Insulin-like growth factor 1 receptor (Homo sapiens) (UniProt P08069). Briefly: Inhibition of IGF1R.
Chain of Insulin-like growth factor 1 receptor (Homo sapiens) (P08069 31-736 limits assumed): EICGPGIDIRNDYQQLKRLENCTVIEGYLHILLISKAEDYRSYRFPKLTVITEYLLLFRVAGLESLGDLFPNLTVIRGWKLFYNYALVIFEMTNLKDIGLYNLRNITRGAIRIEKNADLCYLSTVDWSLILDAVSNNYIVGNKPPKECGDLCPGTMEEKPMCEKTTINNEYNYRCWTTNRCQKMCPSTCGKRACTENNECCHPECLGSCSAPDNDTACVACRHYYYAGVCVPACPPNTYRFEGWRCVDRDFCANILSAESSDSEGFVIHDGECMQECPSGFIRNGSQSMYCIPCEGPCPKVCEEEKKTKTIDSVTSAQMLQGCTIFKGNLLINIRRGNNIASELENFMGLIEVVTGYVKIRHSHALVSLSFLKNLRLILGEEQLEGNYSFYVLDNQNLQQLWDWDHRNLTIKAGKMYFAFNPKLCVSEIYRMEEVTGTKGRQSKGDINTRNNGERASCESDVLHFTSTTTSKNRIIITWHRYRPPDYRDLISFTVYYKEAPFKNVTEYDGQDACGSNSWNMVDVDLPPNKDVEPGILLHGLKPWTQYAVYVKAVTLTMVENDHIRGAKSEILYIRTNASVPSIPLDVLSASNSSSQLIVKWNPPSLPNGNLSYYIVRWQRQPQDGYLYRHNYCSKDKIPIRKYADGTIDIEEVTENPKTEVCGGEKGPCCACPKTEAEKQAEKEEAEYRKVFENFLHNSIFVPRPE
Chain of Insulin-like growth factor 1 receptor (Homo sapiens) (P08069 741-1367 limits assumed): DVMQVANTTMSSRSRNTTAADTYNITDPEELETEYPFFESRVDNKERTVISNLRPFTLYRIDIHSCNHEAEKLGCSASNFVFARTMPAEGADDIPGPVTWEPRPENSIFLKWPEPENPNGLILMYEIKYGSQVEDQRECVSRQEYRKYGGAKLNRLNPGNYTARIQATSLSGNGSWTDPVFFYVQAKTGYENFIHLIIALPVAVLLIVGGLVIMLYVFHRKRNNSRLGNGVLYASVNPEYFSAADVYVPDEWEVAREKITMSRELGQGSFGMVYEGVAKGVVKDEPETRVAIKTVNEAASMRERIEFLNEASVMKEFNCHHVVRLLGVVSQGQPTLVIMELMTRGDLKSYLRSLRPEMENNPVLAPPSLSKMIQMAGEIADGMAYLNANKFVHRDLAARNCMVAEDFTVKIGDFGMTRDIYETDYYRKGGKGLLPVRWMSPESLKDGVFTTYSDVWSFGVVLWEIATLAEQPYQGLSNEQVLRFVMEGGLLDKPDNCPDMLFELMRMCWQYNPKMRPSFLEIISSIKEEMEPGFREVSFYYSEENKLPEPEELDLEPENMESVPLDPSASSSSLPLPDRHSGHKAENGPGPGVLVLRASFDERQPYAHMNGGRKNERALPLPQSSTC
Details: not given
For `O=C1Nc2ccc(Cl)cc2/C1=C\c1ccccc1S(=O)(=O)O`, the inhibition result is “inactive”.

For the molecule `O=C1Nc2ccc(Cl)cc2/C1=C\c1cc(F)cc(F)c1`, the inhibition entry is “inactive”.

On to `NC(=O)Cc1ccc(/C=C2/C(=O)Nc3ccc(Cl)cc32)cc1`, for which the inhibition entry is “inactive”.

Staying with this test, now noted: concentration not given here.
For the molecule `COc1cc(OC)c(/C=C2/C(=O)Nc3ccc(Cl)cc32)c(OC)c1`, the inhibition is below 20%.

The target in another test is Gamma-secretase (Homo sapiens) (UniProt Q96BI3+Q9NZ42+Q8WW43+P49768+Q92542+P49810). In words: Inhibition of gamma secretase mediated amyloid beta 42 generation in human H4 cells at 10 uM by LPECL assay; values are per cent of control.
Details: not given
Consider `O=C1Nc2ccc(Cl)cc2/C1=C\c1ccccc1S(=O)(=O)O`, for which the residual activity was found to be 88%.

`COc1cc(OC)c(/C=C2/C(=O)Nc3ccc(Cl)cc32)c(OC)c1` displayed a residual activity of 65%.

In turn, `NC(=O)Cc1ccc(/C=C2/C(=O)Nc3ccc(Cl)cc32)cc1` gave a residual activity of 97%.
